Experiment: log P (partition coefficient in 1-octanol and water)
Type: physicochemical
Details: 1-octanol/water, pH 7.4
Description: Emulsions of the invention are useful for formulating lipophilic pharmacological agents (LPAs) for in vivo use. Such LPAs include, but are not limited to, vitamins (e.g. vitamins A, D, E and K and their salts/esters, such as α-tocopherol succinate), carotenoids (e.g. β-carotene), fatty acids (e.g. arachidonic acid, ecosapentaenoic acid docosahexaenoic acid), pyrimidines (e.g. 5-hydroxy-4,6-dimethyl-2-(6-phenylhexyl)aminopyrimidine), ansamitocins, angiotensin II receptor antagonists (e.g. candesartan cilexetil), and immunopotentiators (e.g. muramyl dipeptides).
For example, to deliver a 25 μg dose in a typical oil-in-water emulsion would require the agonist to have a squalene solubility of 10 mg/ml, which is about 2.5× higher than can be achieved.

Cc1ccc2c(c1)nc(N)c1ncc(CCc3ccc(OCCC(C)C)cc3C)cc12 [compound ‘A’]
logP: 7.5
